Experimental data published in patent US8252822B2, “Heterocyclic compounds and uses as anticancer agents” (Acea Biosciences, Inc., priority 2007, dated 2012).
pIC50: −log10 of the molar value. Like-named read-outs stand apart in the source and are kept apart here.

Experiments:
SKOV3 = assay: RT-CES cell proliferation inhibition, SKOV3; type: cell-based; details: Homo sapiens, SK-OV-3
From the text: (§1) The biological activity of compounds disclosed herein was monitored and profiled using the Real-Time Cell Electronic Sensing (RT-CES®) system from ACEA Biosciences, Inc. The RT-CES system utilizes cell-substrate impedance technology to monitor cellular behavior inside tissue culture wells in a microtiter plate format. The technology features in the integration of molecular and cell biology with microelectronics and is based on the electronic detection of biological assay process. The details of this cell electronic sensing technology and associated devices, systems and methods of use as described in U.S. provisional application No. 60/379,749, filed on Jul. […]
(§2) For measurement of cell-substrate or cell-electrode impedance using RT-CES technology, microelectrodes having appropriate geometries are fabricated onto the bottom surfaces of microtiter plate or similar device, facing into the wells. […] When there are changes to the biological status of the cells analogue electronic readout signals are measured automatically and in real time, and are converted to digital signals for processing and for analysis. In a RT-CES system, a cell index (arbitrary representation of change in impedance) is automatically derived and provided based on measured electrode impedance values. […]
(§3) To quantify cell status based on the measured cell-electrode impedance, a parameter termed Cell Index is derived. […]

Panc-1 = assay: RT-CES cell proliferation inhibition, Panc-1; type: cell-based; details: Homo sapiens
From the text: as §1, §2, §3

Hela = assay: RT-CES cell proliferation inhibition, Hela; type: cell-based; details: Homo sapiens
From the text: as §1, §2, §3

MDCK = assay: RT-CES cell proliferation inhibition, MDCK; type: cell-based, Monkey; details: Canis lupus familiaris
From the text: as §1, §2, §3

3T3 = assay: RT-CES cell proliferation inhibition, 3T3; type: cell-based; details: Mus musculus, NIH3T3
From the text: as §1, §2, §3

ST30 = assay: RT-CES cell proliferation inhibition, ST30; type: cell-based; details: Homo sapiens
From the text: as §1, §2, §3

Bcap37 = assay: RT-CES cell proliferation inhibition, Bcap37; type: cell-based; details: Homo sapiens
From the text: as §1, §2, §3

MKN45 = assay: RT-CES cell proliferation inhibition, MKN45; type: cell-based; details: Homo sapiens, MKN-45
From the text: as §1, §2, §3

A549 cells = assay: RT-CES cell proliferation inhibition, A549; type: cell-based, Human; details: for pIC50: Homo sapiens
From the text: The biological activity of compounds disclosed herein was monitored and profiled using the Real-Time Cell Electronic Sensing (RT-CES®) system from ACEA Biosciences, Inc. The RT-CES system utilizes cell-substrate impedance technology to monitor cellular behavior inside tissue culture wells in a microtiter plate format. The technology features in the integration of molecular and cell biology with microelectronics and is based on the electronic detection of biological assay process. The details of this cell electronic sensing technology and associated devices, systems and methods of use as described in U.S. provisional application No. 60/379,749, filed on Jul. 20, 2002; U.S. provisional application No. 60/435,400, filed on Dec. 20, 2002; U.S. Provisional application 60/469,572, filed on May 9, 2003, PCT application number PCT/US03/22557, filed on Jul. 18, 2003; PCT application number PCT/US03/22537, filed on Jul. 18, 2003; U.S. patent application Ser. No. 10/705,447, filed on Nov. 10, 2003; U.S. patent application Ser. No. 10/705,615, filed on Nov. 10, 2003, each of which is incorporated by reference. Additional details of RT-CES technology is further disclosed in U.S. provisional application No. 60/519,567, filed on Nov. 12, 2003, and U.S. provisional application No. 60/542,927, filed on Feb. 9, 2004.
For measurement of cell-substrate or cell-electrode impedance using RT-CES technology, microelectrodes having appropriate geometries are fabricated onto the bottom surfaces of microtiter plate or similar device, facing into the wells. Cells are introduced into the wells of the devices, and make contact to and attach to the electrode surfaces. The presence, absence or change of properties of cells affects the electronic and ionic passage on the electrode sensor surfaces. Measuring the impedance between or among electrodes provides important information about biological status of cells present on the sensors. When there are changes to the biological status of the cells analogue electronic readout signals are measured automatically and in real time, and are converted to digital signals for processing and for analysis. In a RT-CES system, a cell index (arbitrary representation of change in impedance) is automatically derived and provided based on measured electrode impedance values. The cell index obtained for a given well reflects: 1) how many cells are attached to the electrode surfaces in this well; 2) how well cells are attached to the electrode surfaces in this well. Thus, the more the cells of same type in similar physiological conditions attach the electrode surfaces, the larger the cell index. And, the better the cells attach to the electrode surfaces (e.g., the cells spread-out more to have larger contact areas, or the cells attach tighter to electrode surfaces), the larger the cell index.
The RT-CES system comprises three components, an electronic sensor analyzer, a device station and 16× or 96× microtiter devices. Microelectrode sensor array was fabricated on glass slides with lithographical microfabrication methods and the electrode-containing slides are assembled to plastic trays to form electrode-containing wells. The device station receives the 16× or 96× microtiter plate devices and is capable of electronically switching any one of the wells to the sensor analyzer for impedance measurement. In operation, the devices with cells cultured in the wells are placed into a device station that is located inside an incubator. Electrical cables connect the device station to the sensor analyzer. Under the RT-CES software control, the sensor analyzer can automatically select wells to be measured and continuously conduct impedance measurements. The impedance data from the analyzer is transferred to a computer, analyzed and processed by the integrated software.
as §3

pIC50 (SKOV3; SKOV3, 24 hrs, read-out: IC50 (24 hr)): 7.70
pIC50 (SKOV3; SKOV3, 48 hrs, read-out: IC50 (48 hr)): 7.94
pIC50 (Panc-1; Panc-1, 24 hrs, read-out: IC50 (24 hr)): 6.95
pIC50 (Panc-1; Panc-1, 48 hrs, read-out: IC50 (48 hr)): 6.37
pIC50 (Hela; 24 hrs, read-out: IC50 (24 hr)): 8.23
pIC50 (Hela; 48 hrs, read-out: IC50 (48 hr)): 8.16
pIC50 (MKN45; MKN45, 24 hrs, read-out: IC50 (24 hr)): < 6.70
pIC50 (MKN45; MKN45, 48 hrs, read-out: IC50 (48 hr)): < 6.70
pIC50 (A549 cells; A549, 48 hrs, read-out: IC50 (48 hr)): 7.54
Compound: Br.CCOc1ccc(Nc2nc(-c3c(C)nc4sccn34)cs2)cc1 [Compound 27, 2-(4-ethoxyphenyl)amino-4-(6-methylimidazo[2,1-b]thiazol-5-yl)thiazole]
pIC50 (MDCK; 24 hrs, read-out: IC50 (24 hr)): 6.03
pIC50 (MDCK; 48 hrs, read-out: IC50 (48 hr)): 5.73
pIC50 (3T3; 3T3, 24 hrs, read-out: IC50 (24 hr)): 7.69
pIC50 (3T3; 3T3, 48 hrs, read-out: IC50 (48 hr)): 7.29
pIC50 (ST30; ST30, 24 hrs, read-out: IC50 (24 hr)): 7.41
pIC50 (ST30; ST30, 48 hrs, read-out: IC50 (48 hr)): 7.37
pIC50 (Bcap37; Bcap37, 24 hrs, read-out: IC50 (24 hr)): 7.56
pIC50 (Bcap37; Bcap37, 48 hrs, read-out: IC50 (48 hr)): 7.59
concentration at or above which cell indices first decreased with time and then increased (A549 cells; A549, complex kinetic responses): ≥ 62.5 nM
pIC50 (A549 cells; A549, 24 hours after compound treatment, normalized Cell Index, read-out: IC50 (24 hr)): 7.24
inhibitory ability against the proliferation of A549 cells (A549 cells; various concentrations studied, time-dependent cell index): exhibited inhibitory ability against the proliferation of A549 cells
